Assay results from ChEMBL document CHEMBL4219066, “Identification and Mitigation of Reactive Metabolites of 2-Aminoimidazole-Containing Microsomal Prostaglandin E Synthase-1 Inhibitors Terminated Due to Clinical Drug-Induced Liver Injury” (J Med Chem, 2018).

Assays:
[1] = Drug metabolism in human liver microsomes assessed as metabolite M9 formation at 2 uM in presence of 1:1 ratio of unlabeled GSH and [glycine 13C2,15N]-labelled GSH after 0.5 hrs by HPLC-MS analysis; assay type: ADME, microsome
[2] = Drug metabolism in human hepatocytes assessed as 2-(difluoromethyl)-5-((3-hydroxy-2-methylpropanamido)methyl)-N-(4-methyl-5-(4-(trifluoromethyl)phenyl)-1H-imidazol-2-yl)nicotinamide formation at 2 uM after 4 hrs by LC-MS/MS analysis; assay type: ADME, cell-based, Hepatocyte
[3] = In vivo drug metabolism in human plasma assessed as 2-(difluoromethyl)-5-((3-hydroxy-2-methylpropanamido)methyl)-N-(4-methyl-5-(4-(trifluoromethyl)phenyl)-1H-imidazol-2-yl)nicotinamide formation HPLC-MS analysis; assay type: ADME, organism-based
[4] = Drug metabolism in human hepatocytes assessed as metabolite M7 formation at 2 uM after 4 hrs by LC-MS/MS analysis; assay type: ADME, cell-based, Hepatocyte
[5] = Drug metabolism in human hepatocytes assessed as 2-(difluoromethyl)-5-((2-hydroxy-2-methylpropanamido)methyl)-N-(4-methyl-5-(4-(trifluoromethyl)phenyl)-1H-imidazol-2-yl)nicotinamide formation at 2 uM after 4 hrs by LC-MS/MS analysis; assay type: ADME, cell-based, Hepatocyte
[6] = In vivo drug metabolism in human plasma assessed as 2-(difluoromethyl)-5-(methacrylamidomethyl)-N-(4-methyl-5-(4-(trifluoromethyl)phenyl)-1H-imidazol-2-yl)nicotinamide formation HPLC-MS analysis; assay type: ADME, organism-based
[7] = Drug metabolism in human hepatocytes assessed as 4-methyl-5-(4-(trifluoromethyl)phenyl)-1H-imidazol-2-amine formation at 2 uM after 4 hrs by LC-MS/MS analysis; assay type: ADME, cell-based, Hepatocyte
[8] = Drug metabolism in rat hepatocytes assessed as 2-(difluoromethyl)-5-(methacrylamidomethyl)-N-(4-methyl-5-(4-(trifluoromethyl)phenyl)-1H-imidazol-2-yl)nicotinamide formation at 2 uM after 4 hrs by LC-MS/MS analysis; assay type: ADME, cell-based, Hepatocyte
[9] = Drug metabolism in rat hepatocytes assessed as 4-methyl-5-(4-(trifluoromethyl)phenyl)-1H-imidazol-2-amine formation at 2 uM after 4 hrs by LC-MS/MS analysis; assay type: ADME, cell-based, Hepatocyte
[10] = In vivo drug metabolism in human plasma assessed as 2-(difluoromethyl)-5-((2-hydroxy-2-methylpropanamido)methyl)-N-(4-methyl-5-(4-(trifluoromethyl)phenyl)-1H-imidazol-2-yl)nicotinamide formation HPLC-MS analysis; assay type: ADME, organism-based
[11] = Drug metabolism in rat hepatocytes assessed as 2-(difluoromethyl)-5-((3-hydroxy-2-methylpropanamido)methyl)-N-(4-methyl-5-(4-(trifluoromethyl)phenyl)-1H-imidazol-2-yl)nicotinamide formation at 2 uM after 4 hrs by LC-MS/MS analysis; assay type: ADME, cell-based, Hepatocyte
[12] = Drug metabolism in Sprague-Dawley rat plasma assessed as 2-(difluoromethyl)-5-((2-hydroxy-2-methylpropanamido)methyl)-N-(4-methyl-5-(4-(trifluoromethyl)phenyl)-1H-imidazol-2-yl)nicotinamide formation at 1000 mg/kg, po measured after 2 hrs post dose by LC/MS analysis; assay type: ADME, organism-based; conditions: in vivo
[13] = In vivo drug metabolism in human urine assessed as 2-(difluoromethyl)-5-((3-hydroxy-2-methylpropanamido)methyl)-N-(4-methyl-5-(4-(trifluoromethyl)phenyl)-1H-imidazol-2-yl)nicotinamide formation by HPLC-MS analysis; assay type: ADME, organism-based
[14] = Drug metabolism in Sprague-Dawley rat plasma assessed as 2-(difluoromethyl)-5-((3-hydroxy-2-methylpropanamido)methyl)-N-(4-methyl-5-(4-(trifluoromethyl)phenyl)-1H-imidazol-2-yl)nicotinamide formation at 1000 mg/kg, po measured after 2 hrs post dose by LC/MS analysis; assay type: ADME, organism-based; conditions: in vivo
[15] = Drug metabolism in rat hepatocytes assessed as 2-(difluoromethyl)-5-((2-hydroxy-2-methylpropanamido)methyl)-N-(4-methyl-5-(4-(trifluoromethyl)phenyl)-1H-imidazol-2-yl)nicotinamide formation at 2 uM after 4 hrs by LC-MS/MS analysis; assay type: ADME, cell-based, Hepatocyte
[16] = Drug metabolism in dog hepatocytes assessed as N-carbamimidoyl-2-(difluoromethyl)-5-(isobutyramidomethyl)nicotinamide formation at 2 uM after 4 hrs by LC-MS/MS analysis; assay type: ADME, cell-based, Canis lupus familiaris, Hepatocyte
[17] = In vivo drug metabolism in human urine assessed as 5-(aminomethyl)-2-(difluoromethyl)-N-(4-methyl-5-(4-(trifluoromethyl)phenyl)-1H-imidazol-2-yl)nicotinamide formation by HPLC-MS analysis; assay type: ADME, organism-based
[18] = Drug metabolism in Beagle dog plasma assessed as 4-methyl-5-(4-(trifluoromethyl)phenyl)-1H-imidazol-2-amine formation at 300 to 600 mg/kg, po measured after 2 hrs post dose by LC/MS analysis; assay type: ADME, organism-based, Canis lupus familiaris; conditions: in vivo
[19] = Drug metabolism in human liver microsomes assessed as metabolite M7 formation at 2 uM in presence of 1:1 ratio of unlabeled GSH and [glycine 13C2,15N]-labelled GSH after 0.5 hrs by HPLC-MS analysis; assay type: ADME, microsome
[20] = Drug metabolism in Beagle dog plasma assessed as 2-(difluoromethyl)-5-((3-hydroxy-2-methylpropanamido)methyl)-N-(4-methyl-5-(4-(trifluoromethyl)phenyl)-1H-imidazol-2-yl)nicotinamide formation at 300 to 600 mg/kg, po measured after 2 hrs post dose by LC/MS analysis; assay type: ADME, organism-based, Canis lupus familiaris; conditions: in vivo
[21] = Drug metabolism in rat hepatocytes assessed as N-carbamimidoyl-2-(difluoromethyl)-5-(isobutyramidomethyl)nicotinamide formation at 2 uM after 4 hrs by LC-MS/MS analysis; assay type: ADME, cell-based, Hepatocyte
[22] = Drug metabolism in human hepatocytes assessed as N-carbamimidoyl-2-(difluoromethyl)-5-(isobutyramidomethyl)nicotinamide formation at 2 uM after 4 hrs by LC-MS/MS analysis; assay type: ADME, cell-based, Hepatocyte
[23] = In vivo drug metabolism in human urine assessed as N-carbamimidoyl-2-(difluoromethyl)-5-(isobutyramidomethyl)nicotinamide formation by HPLC-MS analysis; assay type: ADME, organism-based
[24] = Drug metabolism in rat hepatocytes assessed as metabolite M7 formation at 2 uM after 4 hrs by LC-MS/MS analysis; assay type: ADME, cell-based, Hepatocyte
[25] = Drug metabolism in Sprague-Dawley rat plasma assessed as 5-(aminomethyl)-2-(difluoromethyl)-N-(4-methyl-5-(4-(trifluoromethyl)phenyl)-1H-imidazol-2-yl)nicotinamide formation at 1000 mg/kg, po measured after 2 hrs post dose by LC/MS analysis; assay type: ADME, organism-based; conditions: in vivo
[26] = Drug metabolism in dog hepatocytes assessed as 2-(difluoromethyl)-5-((2-hydroxy-2-methylpropanamido)methyl)-N-(4-methyl-5-(4-(trifluoromethyl)phenyl)-1H-imidazol-2-yl)nicotinamide formation at 2 uM after 4 hrs by LC-MS/MS analysis; assay type: ADME, cell-based, Canis lupus familiaris, Hepatocyte
[27] = In vivo drug metabolism in human urine assessed as 2-(difluoromethyl)-5-((2-hydroxy-2-methylpropanamido)methyl)-N-(4-methyl-5-(4-(trifluoromethyl)phenyl)-1H-imidazol-2-yl)nicotinamide formation by HPLC-MS analysis; assay type: ADME, organism-based
[28] = Drug metabolism in Sprague-Dawley rat plasma assessed as 4-methyl-5-(4-(trifluoromethyl)phenyl)-1H-imidazol-2-amine formation at 1000 mg/kg, po measured after 2 hrs post dose by LC/MS analysis; assay type: ADME, organism-based; conditions: in vivo
[29] = Drug metabolism in Beagle dog plasma assessed as 2-(difluoromethyl)-5-((2-hydroxy-2-methylpropanamido)methyl)-N-(4-methyl-5-(4-(trifluoromethyl)phenyl)-1H-imidazol-2-yl)nicotinamide formation at 300 to 600 mg/kg, po measured after 2 hrs post dose by LC/MS analysis; assay type: ADME, organism-based, Canis lupus familiaris; conditions: in vivo
[30] = Drug metabolism in rat hepatocytes assessed as N-carbamimidoyl-2-(difluoromethyl)-5-(pivalamidomethyl)nicotinamide formation at 2 uM after 4 hrs by LC-MS/MS analysis; assay type: ADME, cell-based, Hepatocyte
[31] = Drug metabolism in human hepatocytes assessed as M2 metabolite formation at 2 uM after 4 hrs by LC-MS/MS analysis; assay type: ADME, cell-based, Hepatocyte
[32] = Drug metabolism in dog hepatocytes assessed as M2 metabolite formation at 2 uM after 4 hrs by LC-MS/MS analysis; assay type: ADME, cell-based, Canis lupus familiaris, Hepatocyte
[33] = Drug metabolism in rat hepatocytes assessed as M2 metabolite formation at 2 uM after 4 hrs by LC-MS/MS analysis; assay type: ADME, cell-based, Hepatocyte
[34] = Drug metabolism in Sprague-Dawley rat plasma assessed as N-(4-methyl-5-(4-(trifluoromethyl)phenyl)-1H-imidazol-2-yl)acetamide formation at 1000 mg/kg, po measured after 2 hrs post dose by LC/MS analysis; assay type: ADME, organism-based; conditions: in vivo
[35] = Drug metabolism in dog hepatocytes assessed as N-carbamimidoyl-2-(difluoromethyl)-5-(pivalamidomethyl)nicotinamide formation at 2 uM after 4 hrs by LC-MS/MS analysis; assay type: ADME, cell-based, Canis lupus familiaris, Hepatocyte
[36] = Drug metabolism in human liver microsomes assessed as metabolite M6 formation at 2 uM in presence of 1:1 ratio of unlabeled GSH and [glycine 13C2,15N]-labelled GSH after 0.5 hrs by HPLC-MS analysis; assay type: ADME, microsome
[37] = Drug metabolism in Beagle dog plasma assessed as N-(4-methyl-5-(4-(trifluoromethyl)phenyl)-1H-imidazol-2-yl)acetamide formation at 300 to 600 mg/kg, po measured after 2 hrs post dose by LC/MS analysis; assay type: ADME, organism-based, Canis lupus familiaris; conditions: in vivo
[38] = Drug metabolism in human liver microsomes assessed as metabolite M2 formation at 2 uM in presence of 1:1 ratio of unlabeled GSH and [glycine 13C2,15N]-labelled GSH after 0.5 hrs by HPLC-MS analysis; assay type: ADME, microsome
[39] = Drug metabolism in Beagle dog plasma assessed as (2S,3S,4S,5R,6R)-3,4,5-trihydroxy-6-(4-methyl-5-(4-(trifluoromethyl)phenyl)-1H-imidazol-2-ylamino)tetrahydro-2H-pyran-2-carboxylic acid formation at 300 to 600 mg/kg, po measured after 2 hrs post dose by LC/MS analysis; assay type: ADME, organism-based, Canis lupus familiaris; conditions: in vivo
[40] = Drug metabolism in dog hepatocytes assessed as 2-(difluoromethyl)-5-((3-hydroxy-2,2-dimethylpropanamido)methyl)-N-(4-(hydroxymethyl)-5-(4-(trifluoromethyl)phenyl)-1H-imidazol-2-yl)nicotinamide formation at 2 uM after 4 hrs by LC-MS/MS analysis; assay type: ADME, cell-based, Canis lupus familiaris, Hepatocyte
[41] = Drug metabolism in rat hepatocytes assessed as 2-(difluoromethyl)-5-((3-hydroxy-2,2-dimethylpropanamido)methyl)-N-(4-methyl-5-(4-(trifluoromethyl)phenyl)-1H-imidazol-2-yl)nicotinamide formation at 2 uM after 4 hrs by LC-MS/MS analysis; assay type: ADME, cell-based, Hepatocyte
[42] = Drug metabolism in human hepatocytes assessed as 2-(difluoromethyl)-5-((3-hydroxy-2,2-dimethylpropanamido)methyl)-N-(4-methyl-5-(4-(trifluoromethyl)phenyl)-1H-imidazol-2-yl)nicotinamide formation at 2 uM after 4 hrs by LC-MS/MS analysis; assay type: ADME, cell-based, Hepatocyte
[43] = Drug metabolism in dog hepatocytes assessed as 2-(difluoromethyl)-5-((3-hydroxy-2,2-dimethylpropanamido)methyl)-N-(4-methyl-5-(4-(trifluoromethyl)phenyl)-1H-imidazol-2-yl)nicotinamide formation at 2 uM after 4 hrs by LC-MS/MS analysis; assay type: ADME, cell-based, Canis lupus familiaris, Hepatocyte
[44] = Drug metabolism in human liver microsomes assessed as M5 metabolite formation at 2 uM in presence of 1:1 ratio of unlabeled GSH and [glycine 13C2,15N]-labelled GSH after 0.5 hrs by HPLC-MS analysis; assay type: ADME, microsome
[45] = Drug metabolism in human hepatocytes assessed as N-carbamimidoyl-2-(difluoromethyl)-5-(pivalamidomethyl)nicotinamide formation at 2 uM after 4 hrs by LC-MS/MS analysis; assay type: ADME, cell-based, Hepatocyte
[46] = Drug metabolism in rat hepatocytes assessed as 2-chloro-5-((3-hydroxy-2,2-dimethylpropanamido)methyl)-N-(4-methyl-1H-imidazol-2-yl)benzamide formation at 2 uM after 4 hrs by LC-MS/MS analysis; assay type: ADME, cell-based, Hepatocyte
[47] = Drug metabolism in rat hepatocytes assessed as N-carbamimidoyl-2-chloro-5-(pivalamidomethyl)benzamide formation at 2 uM after 4 hrs by LC-MS/MS analysis; assay type: ADME, cell-based, Hepatocyte
[48] = Drug metabolism in human hepatocytes assessed as N-carbamimidoyl-2-chloro-5-(pivalamidomethyl)benzamide formation at 2 uM after 4 hrs by LC-MS/MS analysis; assay type: ADME, cell-based, Hepatocyte
[49] = Drug metabolism in human hepatocytes assessed as 2-chloro-N-(4-(hydroxymethyl)-1H-imidazol-2-yl)-5-(pivalamidomethyl)benzamide formation at 2 uM after 4 hrs by LC-MS/MS analysis; assay type: ADME, cell-based, Hepatocyte
[50] = Drug metabolism in rat hepatocytes assessed as 2-chloro-N-(4-(hydroxymethyl)-1H-imidazol-2-yl)-5-(pivalamidomethyl)benzamide formation at 2 uM after 4 hrs by LC-MS/MS analysis; assay type: ADME, cell-based, Hepatocyte
[51] = Drug metabolism in human hepatocytes assessed as 2-chloro-5-((3-hydroxy-2,2-dimethylpropanamido)methyl)-N-(4-methyl-1H-imidazol-2-yl)benzamide formation at 2 uM after 4 hrs by LC-MS/MS analysis; assay type: ADME, cell-based, Hepatocyte

Measured: Drug metabolism

Cc1nc(NC(=O)c2cc(CNC(=O)C(C)C)cnc2C(F)F)[nH]c1-c1ccc(C(F)(F)F)cc1
not listed: [30] | [31] | [32] | [33] | [34] | [35] | [36] | [37] | [38] | [39] | [40] | [41] | [42] | [43] | [44] | [45] | [46] | [47] | [48] | [49] | [50] | [51]
Metabolite_Detected: all other assays above

Cc1nc(NC(=O)c2cc(CNC(=O)C(C)(C)C)cnc2C(F)F)[nH]c1-c1ccc(C(F)(F)F)cc1
Metabolite_Detected: [30] | [31] | [32] | [33] | [34] | [35] | [36] | [37] | [38] | [39] | [40] | [41] | [42] | [43] | [44] | [45]

Cc1c[nH]c(NC(=O)c2cc(CNC(=O)C(C)(C)C)ccc2Cl)n1
Metabolite_Detected: [46] | [47] | [48] | [49] | [50] | [51]
